Reference: the C3SDB collision cross section collection
Where a name gives a salt, the structure may show the parent alone.

Conditions: [M+H-H2O]+; instrument: TW; calibrated with polyalanine and drug standards

Structure (SMILES)	collision cross section (N2)
CC(C)CCC[C@@H](C)[C@H]1CC[C@H]2C3=CC[C@H]4C[C@@H](O)CC[C@]4(C)[C@H]3CC[C@]12C [LATHOSTEROL]	204 Å²
NS(=O)(=O)c1cc2c(cc1Cl)NCNS2(=O)=O [HYDROCHLOROTHIAZIDE]	160.8 Å²

Second part, the compound after the results:

collision cross section (N2)	Structure (SMILES)
172.3 Å²	COc1ccc2c(c1)OC[C@@H](Cc1ccc(OC)c(OC)c1)[C@@H]2O [3-DESHYDROXYSAPPANOL TRIMETHYL ETHER]
169.4 Å²	COC(=O)C1=C(C)NC(C)=C(C(=O)OC)C1c1ccccc1[N+](=O)[O-] [NIFEDIPINE]

Same assay, conditions: [M+H]+; instrument: TW; calibrated with polyalanine and drug standards

Structure (SMILES)	collision cross section (N2)
CC(=O)OC1CCC2(C)C3=C(CC[C@H]2C1(C)C)[C@@]1(C)CC[C@@H]([C@@H](C)CCC=C(C)C)[C@]1(C)CC3 (stereo partly specified) [EUPHOL ACETATE]	218 Å²
C[C@@H]1CC[C@H]2C(C)(C)[C@H]3C[C@@]12CC[C@@]3(C)O [CEDROL]	145.9 Å²
C=CCc1ccc2c(c1)OCO2 [SAFROLE]	138.6 Å²
COc1cc(-c2coc3cc(OC)c(OC)c(OC)c3c2=O)cc(OC)c1OC [IRIGENIN TRIMETHYL ETHER]	195.4 Å²
C[C@@H]1O[C@@H](OC[C@H]2OC(Oc3c(-c4ccc(O)c(O)c4)oc4cc(O)cc(O)c4c3=O)[C@H](O)[C@@H](O)[C@@H]2O)[C@H](O)[C@H](O)[C@H]1O (stereo partly specified) [RUTOSIDE  (rutin)]	230.7 Å²
O=C1OC(CN2CCOCC2)CN1/N=C/c1ccc([N+](=O)[O-])o1 (stereo unspecified) [FURALTADONE]	166.9 Å²
Nc1ncnc2c1ncn2[C@@H]1O[C@H](CO)[C@@H](O)[C@@H]1O [VIDARABINE]	156.4 Å²
CC(C)Cn1c(=O)n(C)c(=O)c2[nH]cnc21 [3-ISOBUTYL-1-METHYLXANTHINE (IBMX)]	147.8 Å²
O=C(O)c1cccnc1Nc1cccc(C(F)(F)F)c1 [NIFLUMIC ACID]	159.4 Å²
C=CCOC(Cn1ccnc1)c1ccc(Cl)cc1Cl (stereo unspecified) [ENILCONAZOLE]	165.2 Å²
COCCc1ccc(OCC(O)CNC(C)C)cc1 (stereo unspecified) [METOPROLOL]	170.7 Å²
CC(C)(C)NC(=O)[C@H]1CC[C@H]2[C@@H]3CC[C@H]4NC(=O)C=C[C@]4(C)[C@H]3CC[C@]12C [FINASTERIDE]	200 Å²
O=c1cc(-c2ccccc2)oc2cc(O)cc(O)c12 [CHRYSIN]	151.7 Å²
C=C[C@H]1CN2CC[C@H]1C[C@@H]2[C@@H](O)c1ccnc2ccccc12 [CINCHONINE]	166.3 Å²
CCCCC(CC)CN1CN(CC(CC)CCCC)CC(C)(N)C1 (stereo unspecified) [HEXETIDINE]	194 Å²
COc1cc(O)cc(OC)c1OC [ANTIAROL]	133.5 Å²
COc1cc(/C=C/C(=O)O)ccc1O [FERULIC ACID]	128.8 Å²
O=c1[nH]c2cc(Cl)c(Cl)cc2[nH]c1=O [2,3-DIHYDROXY-6,7-DICHLOROQUINOXALINE]	143 Å²
CN1CCN(C(=O)OC2c3nccnc3C(=O)N2c2ccc(Cl)cn2)CC1 (stereo unspecified) [ZOPICLONE]	186.5 Å²
COc1ccc(-c2cc(=O)c3c(O)cc(O)cc3o2)cc1 [ACACETIN]	160.3 Å²
CC(C)c1ccc2c(c1O)CC[C@H]1C3=C(CC[C@]21C)C(=O)OC3 [TRIPTOPHENOLIDE]	179.4 Å²
CC(C(=O)O)c1ccc(C(=O)c2cccs2)cc1 (stereo unspecified) [SUPROFEN]	157.2 Å²

Structure (SMILES)	collision cross section (N2)
CC(C)(Oc1ccc(Cl)cc1)C(=O)O [CLOFIBRIC ACID]	146.6 Å²
Nc1ccc(S(=O)(=O)Nc2ccccn2)cc1 [SULFAPYRIDINE]	151.6 Å²
CN1C2CCC1CC(OC(c1ccccc1)c1ccccc1N)C2 (stereo unspecified) [AMINOBENZTROPINE]	180.6 Å²
CCCC(=O)Nc1ncnc2c1ncn2[C@@H]1O[C@@H]2COP(=O)(O)O[C@H]2[C@H]1OC(=O)CCC [BUCLADESINE]	215.3 Å²
O=C([O-])Cc1cnc[nH]1 [IMIDAZOL-4-YLACETIC ACID SODIUM SALT]	120.7 Å²
CC1=C(CC(=O)O)c2cc(F)ccc2/C1=C\c1ccc(S(C)=O)cc1 (stereo unspecified) [SULINDAC]	191.6 Å²
CN/C(=C\[N+](=O)[O-])NCCSCc1csc(CN(C)C)n1 [NIZATIDINE]	169.1 Å²
CC(C)(C)c1ccc(C(O)CCCN2CCC(C(O)(c3ccccc3)c3ccccc3)CC2)cc1 (stereo unspecified) [TERFENADINE]	226.8 Å²
COc1cc2c3cc1Oc1cc(ccc1O)C[C@@H]1c4c(cc(OC)c(O)c4Oc4ccc(cc4)C[C@@H]3N(C)CC2)CC[N+]1(C)C [TUBOCURARINE CHLORIDE]	236 Å²
O=C(CCCN1CCC2(CC1)C(=O)NCN2c1ccccc1)c1ccc(F)cc1 [SPIPERONE]	193.8 Å²
COc1cc(S(C)=O)ccc1-c1nc2ncccc2[nH]1 (stereo unspecified) [SULMAZOLE]	166.4 Å²
CCCCC1C(=O)N(c2ccccc2)N(c2ccc(O)cc2)C1=O (stereo unspecified) [OXYPHENBUTAZONE]	177.2 Å²
COc1cc(-c2coc3cc(O)c(OC)c(O)c3c2=O)cc(O)c1OC [IRIGENIN]	181.6 Å²
CN(C)CCCN1c2ccccc2Sc2ccc(Cl)cc21 [CHLORPROMAZINE]	169.8 Å²
Nc1nc(F)nc2c1ncn2[C@@H]1O[C@H](COP(=O)(O)O)[C@@H](O)[C@@H]1O [FLUDARABINE PHOSPHATE]	168.8 Å²
CN=C(NC#N)NCCSCc1nc[nH]c1C [CIMETIDINE]	155.7 Å²
C[C@H]1COC2=C1C(=O)C(=O)c1c2ccc2c1CCCC2(C)C [CRYPTOTANSHINONE]	168 Å²
C[C@]12CC[C@H](O)C[C@H]1CC[C@@H]1[C@@H]2C[C@@H](O)[C@]2(C)[C@@H](C3=CC(=O)OC3)CC[C@]12O [DIGOXIGENIN]	195.1 Å²
O=c1c(O)c(-c2ccccc2)oc2cc(O)ccc12 [3,7-DIHYDROXYFLAVONE]	152.1 Å²
O=C(O)C1CCCNC1 (stereo unspecified) [NIPECOTIC ACID]	124.6 Å²
C[C@H]1O[C@@H](O[C@H]2[C@@H](O)C[C@H](O[C@H]3[C@@H](O)C[C@H](O[C@H]4CC[C@@]5(C)[C@H](CC[C@@H]6[C@@H]5C[C@@H](O)[C@]5(C)[C@@H](C7=CC(=O)OC7)CC[C@]65O)C4)O[C@@H]3C)O[C@@H]2C)C[C@H](O)[C@@H]1O [DIGOXIN]	322.5 Å²

Continued, values first:

collision cross section (N2)	Structure (SMILES)
180.9 Å²	CC[C@]12CCCN3CCc4c(n(c5ccccc45)[C@@](O)(C(=O)OC)C1)[C@@H]32 [VINCAMINE]
191 Å²	COc1ccc2c(c1)c(CC(=O)OCC(=O)O)c(C)n2C(=O)c1ccc(Cl)cc1 [ACEMETACIN]
196.8 Å²	Cc1nc2ccccn2c(=O)c1CCN1CCC(C(=O)c2ccc(F)cc2)CC1 [PIRENPERONE]
162.7 Å²	COc1ccc2c(c1)O[C@H]1c3ccc(OC)cc3OC[C@@H]21 [HOMOPTEROCARPIN]
177.4 Å²	CCOC(=O)COc1ccc2c(=O)cc(-c3ccccc3)oc2c1 [EFLOXATE]
199.3 Å²	CCCCC1(COC(=O)CCC(=O)O)C(=O)N(c2ccccc2)N(c2ccccc2)C1=O [SUXIBUZONE]
186 Å²	COC(=O)[C@H]1[C@H]2C[C@H]3c4[nH]c5ccccc5c4CCN3C[C@@H]2CC[C@@H]1O [CORYNANTHINE]
168.7 Å²	COC(=O)Nc1nc2ccc(C(=O)c3cccs3)cc2[nH]1 [NOCODAZOLE]
164.3 Å²	CC(C)Oc1ccc2c(=O)c(-c3ccccc3)coc2c1 [IPRIFLAVONE]
192.7 Å²	C/C(=C(\CCOP(=O)(O)O)SC(=O)c1ccccc1)N(C=O)Cc1cnc(C)nc1N [BENFOTIAMINE]
186.4 Å²	COC(=O)c1c(OC)cc2c(c1C)Oc1c(Cl)c(O)c(Cl)c(C)c1C(=O)O2 [GANGALEOIDIN]
152.4 Å²	O=c1cc(-c2ccccc2O)oc2cc(O)ccc12 [7,2'-DIHYDROXYFLAVONE]
178.5 Å²	CC1=C(C(=O)O)N2C(=O)[C@@H](NC(=O)[C@H](N)c3ccccc3)[C@H]2SC1 [CEPHALEXIN]
142.5 Å²	N[C@@H](COCc1ccccc1)C(=O)O [O-BENZYL-l-SERINE]
167.7 Å²	COc1cc(NS(=O)(=O)c2ccc(N)cc2)nc(OC)n1 [SULFADIMETHOXINE]
134.4 Å²	COc1ccc2c(C)cc(=O)oc2c1 [HYMECROMONE METHYL ETHER]
124.9 Å²	COc1ccc(C(C)=O)c(O)c1 [PAEONOL]
161.2 Å²	CC(=O)N(c1onc(C)c1C)S(=O)(=O)c1ccc(N)cc1 [SULFISOXAZOLE ACETYL]
143.9 Å²	O=C(Nc1ccccc1)c1ccccc1O [SALICYLANILIDE]
185.8 Å²	Cc1c(OCC(F)(F)F)ccnc1CS(=O)c1nc2ccccc2[nH]1 (stereo unspecified) [LANSOPRAZOLE]
168.2 Å²	CC(=O)Nc1ccc(OC(=O)c2ccccc2O)cc1 [ACETAMINOSALOL]

Same assay, conditions: [M+Na]+; instrument: TW; calibrated with polyalanine and drug standards

collision cross section (N2)	Structure (SMILES)
153.5 Å²	CC(=O)N[C@@H]1[C@@H](O)[C@H](O)[C@@H](CO)O[C@H]1O [ACETYLGLUCOSAMINE]
205.7 Å²	CC(=O)OCC(OC(C)=O)C(OC(C)=O)C(OC(C)=O)C(OC(C)=O)C(COC(C)=O)OC(C)=O (stereo unspecified) [PERSEITOL HEPTAACETATE]
134.5 Å²	C=CCS(=O)C[C@H](N)C(=O)O (stereo partly specified) [ALLIIN]
